Patent publication US20250250265A1, “BENZOTHIAZOLE-PHENYLSULFONYL-PIPERIDINE ANALOGS AS ACTIVATORS OF NACYLPHOSPHATIDYLETHANOLAMINE HYDROLYZING PHOSPHOLIPASE D” (priority 2022, published 2025)
Entries after “also recorded” stand apart in the source; their conditions may differ.

Tests used:
[1] = biological target: T1, recombinant mouse NAPE-PLD (Mus musculus, UniProt Q8BH82); assay: In vitro competition assay (LEI-401, VU233, VU534) on recombinant mouse Nape-pld; assay type: biochemical
T1 construct: hexahistidine (His6) (C); made in house; host or cells: E. coli
T1 sequence (Q8BH82 1-396): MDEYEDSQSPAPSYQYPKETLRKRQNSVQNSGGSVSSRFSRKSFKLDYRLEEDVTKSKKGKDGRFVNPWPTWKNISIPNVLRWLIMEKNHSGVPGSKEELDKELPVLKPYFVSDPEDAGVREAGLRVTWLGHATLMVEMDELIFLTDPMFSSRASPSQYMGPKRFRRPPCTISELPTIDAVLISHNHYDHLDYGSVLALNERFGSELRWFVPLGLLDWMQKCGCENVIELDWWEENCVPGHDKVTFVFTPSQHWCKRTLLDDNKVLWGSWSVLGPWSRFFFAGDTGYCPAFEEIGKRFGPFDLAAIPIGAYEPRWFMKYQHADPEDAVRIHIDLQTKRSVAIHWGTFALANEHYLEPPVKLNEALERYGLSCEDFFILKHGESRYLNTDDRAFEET
Description: (§1) A similar in vitro fluorescence Nape-pld activity assay was used for LEI-401 and VU233 competition assays except that this assay was performed using black-walled clear-bottom 96-well plates with 3.5 μM PED-A1 and no N-palmitoyl-dioleoyl-PE used as substrate and read in a BioTek Synergy H1 plate reader with the slope of the fluorescence signal from 0-4 min (linear phase) used as the assay readout. LEI-401, VU233, and VU534 were incubated for 1 h prior to addition of PED-A1. The Michaelis-Menten study used this same assay except with graded concentration of flame-NAPE.

[2] = system: bone marrow-derived macrophages (BMDM); assay: Efferocytosis assay with bone marrow-derived macrophages and apoptotic Jurkat cells; assay type: cell-based, mouse; details: 10 μM; for effect on efferocytosis by wild-type BMDM: 6 h before assay
Description: Male C57BL6/j wild-type or Napepld^−/− mice were euthanized with isoflurane and hind legs were removed. Marrow was flushed from femurs and tibias using DMEM containing 4.5 g/L glucose and a 26-gauge needle. Cell suspensions were passed over a 40-μm filter, centrifuged at 500×g, and resuspended in 50 ml of DMEM containing 4.5 g/L glucose, 20% L-cell conditioned media, 10% heat-inactivated FBS, and 1% penicillin/streptomycin. 10 ml of cell suspension was plated into each of five 100-mm dishes and incubated for four days at 37° C. and 5% CO2. On day four, non-adherent cells and debris were aspirated from the plates and replaced with fresh media. After 7 days of differentiation, cells were harvested for use in experiments.
Assays were performed according to previously described protocols. See e.g., Doran et al. J. Clin. Invest. 127(11): 4075-4089 (2017); Proto et al., Immunity 49(4): 666-677 (2018). Bone marrow-derived macrophages were seeded at 0.25×10^6 cells/well in a non-tissue culture-treated 24-well plate and allowed to adhere overnight. Macrophages were treated with various compounds at a final concentration of 10 μM or DMSO as a vehicle for 6 hours prior to each experiment. Jurkat cells were exposed to UV light (254 nm) for 5 minutes to induce apoptosis and then incubated in a 37° C. incubator with 5% CO2 for 2 hours. Surveillance staining of these cells routinely yielded approximately 80-90% apoptosis (Annexin V+) using this method. Apoptotic Jurkat cells were labeled with either CellVue Claret (Millipore Sigma) or Cell Trace Violet (Invitrogen) per the manufacturer's instructions. After staining, cells were resuspended in macrophage medium at a density of […] and 500 μL of this suspension was added to the drug-containing media on the macrophages to achieve a cell ratio of 3:1 Jurkats: macrophages. After incubating for 45 minutes at 37° C. and 5% CO2, the medium was aspirated, and the macrophages were gently washed twice with PBS to remove unbound apoptotic cells. Macrophages were then removed from the plate using Cell Stripper (Sigma), washed, resuspended in staining buffer consisting of 2% FBS in PBS with 2 mM EDTA, and blocked with anti-mouse CD16/32 antibodies for 15 minutes on ice. After blocking, cells were pelleted and resuspended with F4/80. Cells were incubated for 45 minutes on ice in the dark, then washed and resuspended in staining buffer for analysis. Cells were analyzed using an Attune NxT cytometer (Thermo Fisher) and data were analyzed using FlowJo software to quantify the proportion of F4/80^+ macrophages that co-stained for apoptotic cells (% efferocytosis).

[3] = biological target: T2, NAPE-PLD activity in primary BMDMϕ (Mus musculus, UniProt Q8BH82); assay: NAPE-PLD activity in primary bone marrow derived macrophages; assay type: cell-based; details: VU534 at 10 μM (FIG. 5)
T2 construct: endogenous in cells; host or cells: primary bone-marrow-derived macrophages (C57BL6/j mice)
T2 sequence (Q8BH82 1-396): T1 sequence (Q8BH82 1-396)

[4] = biological target: T1, recombinant mouse NAPE-PLD; assay: Michaelis-Menten analysis with flame-NAPE as substrate; assay type: biochemical
Description: To further understand this effect, a 50-nanosecond molecular dynamic (MD) simulation was performed using AMBER17. The PDQ9:VU534 complex was prepped for simulation using CHARMM-GUI and ff14SB, TIP3P, GAFF2 force fields were employed for proteins, […] molecules, respectively. This simulation predicted that VU534 binding to the interface pocket allosterically alters the catalytic site conformation including reorienting the zinc-hydroxide-zinc complex parallel to the substrate (FIG. 11), consistent with the measured increased kcat.
as §1
To confirm the results of the fluorescence-based assays, an orthogonal biochemical Nape-pld assay based on LC/MS was employed. Recombinant mouse NAPE-PLD was pre-treated with VU534, VU533, VU233 or vehicle for 30 min, then N-oleoyl-phosphatidylethanolamine (NOPE) was added for 90 min, and the resulting levels of OEA and NOPE was measured by LC/MS. […] To further characterize the effect of VU534 on NAPE-PLD activity, a Michaelis-Menten analysis was performed using recombinant mouse NAPE-PLD and graded concentrations of flame-NAPE, a selective NAPE-PLD fluorogenic substrate resistant to competing esterase activity.

SMILES: O=C(Nc1nc2ccccc2s1)C1CCN(S(=O)(=O)c2ccc(F)c(Cl)c2)CC1 [VU233]
- effect on enzyme activation by 5 μM VU534 ([1]; graded concentrations with 5 μM VU534 (FIG. 19C)): suppress the enzyme activation of 5 μM VU534 in a concentration-dependent manner
- effect on efferocytosis by wild-type BMDM [2]: modestly reduced efferocytosis

SMILES: Cc1ccc(C)c2sc(NC(=O)C3CCN(S(=O)(=O)c4ccc(F)cc4)CC3)nc12 [VU533]
- effect on efferocytosis by wild-type BMDM [2]: significantly enhanced efferocytosis

SMILES: Cc1cc(C)c2sc(NC(=O)C3CCN(S(=O)(=O)c4ccc(F)cc4)CC3)nc2c1 [VU534, N-(5,7-Dimethylbenzo[d]thiazol-2-yl)-1-((4-fluorophenyl)sulfonyl)piperidine-4-carboxamide]
- increase of Nape-pld activity ([1]; 5 μM, in the absence of LEI-401): 1.5 fold
- effect on NAPE-PLD activity in primary BMDM [3]: increases NAPE-PLD activity
- effect on efferocytosis by Napepld−/− (KO) BMDM ([2]; 6 h, KO BMDM (FIG. 21C)): had no effect
- effect on efferocytosis by WT BMDM in WT versus KO experiment ([2]; 6 h, WT BMDM (FIG. 21C)): significantly increased efferocytosis
- effect on efferocytosis by wild-type BMDM [2]: increases efferocytosis capacity; also recorded: significantly enhanced efferocytosis
- effect on catalytic rate (kcat) of NAPE-PLD ([4]; Example 9, FIG. 10): enhanced kcat (turnover number) without reducing the Michaelis-Menten constant, Km; also recorded: increases the catalytic rate
- K1/2 of NAPE-PLD ([4]; with VU534 (vehicle 12.4 μM), flame-NAPE): 5.9 µM
- maximal velocity of NAPE-PLD ([4]; with VU534 (vehicle 227 RFU/min), flame-NAPE): 421 RFU/min
